Here are results for five compounds from patent US5573908A, “Adrenergic receptor as a proto-oncogene” (Duke University, priority 1993, dated 1996).

Structures are written as SMILES. Where a chain is given by its changes, count along the chain named. Where “and” joins values, the source holds several entries; their conditions need not be identical. Identical values can stand only once. Entries after “also recorded” stand apart in the source; their conditions may differ. Like-named read-outs stand apart in the source and are kept apart here.

For assay [1], the target named is T1, α1B ADR (Mesocricetus auratus, UniProt P18841).
T1 construct: expressed in transfected cells; host or cells: RAT-1 fibroblasts (vector pZIP-NeoSV(X)1), focus-derived, G418-selected lines
T1 sequence (P18841 1-515): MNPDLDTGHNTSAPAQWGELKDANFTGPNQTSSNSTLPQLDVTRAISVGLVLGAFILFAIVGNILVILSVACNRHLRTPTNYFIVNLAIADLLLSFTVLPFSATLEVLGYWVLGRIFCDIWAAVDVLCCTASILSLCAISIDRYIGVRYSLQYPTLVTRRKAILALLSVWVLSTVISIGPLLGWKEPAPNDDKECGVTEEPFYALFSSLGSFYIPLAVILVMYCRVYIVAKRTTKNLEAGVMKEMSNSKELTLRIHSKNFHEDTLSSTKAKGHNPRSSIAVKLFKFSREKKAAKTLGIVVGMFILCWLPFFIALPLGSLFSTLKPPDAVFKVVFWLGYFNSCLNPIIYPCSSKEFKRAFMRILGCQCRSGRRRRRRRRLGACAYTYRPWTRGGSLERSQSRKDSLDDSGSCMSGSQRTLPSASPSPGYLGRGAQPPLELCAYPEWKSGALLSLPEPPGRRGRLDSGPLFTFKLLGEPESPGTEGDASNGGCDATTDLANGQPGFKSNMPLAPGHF
The assay can be described thus: Ligand binding on membranes of RAT-1 fibroblast cell lines expressing the α1B ADR. More on the design: species or system hamster. The following applies: two clones. The protocol:
(§1) In Table 3, RAT-1 fibroblast cell lines transfected with expression vector alone or derived from transformed foci (α1B ADR or α1B ADR mutant) were selected with G418 (300 μg/ml). Ligand binding was performed on membranes prepared from two clones of each in accordance with known techniques (S. Cotecchia et al., Life Sci. 37, 2389 (1986)). For saturation binding analysis, [^125 ] HEAT concentrations ranged from 10 to 500 pM, nonspecific binding was determined using 1 μM prazosin; in competition experiments, the radioligand concentration was 100 pM. Ligand binding parameters were determined using computerized iterative nonlinear regression analysis (P. Munson, Methods in Enzymol. 92, 5432 (1983)). For assessment of receptor coupling to PI hydrolysis, cells were plated in 30 mm dishes, and labeled overnight with 3 μCi/ml of myo-[2-^3 II(N)]-inositol (1Ci=37 GBq; NEN Research Products) in DMEM containing 3.3% FBS in accordance with known techniques (S. Cotecchia et al., Proc. Natl. Acad. Sci. USA 87, 2896 (1990)). After 40 minute stimulation of cells with 10 μM norepinephrine (NE), inositol phosphates were extracted, and separated on AG 1-X8 anion exchange columns (BioRad Labs) in accordance with known techniques (S. Cotecchia et al., Proc. Natl. Acad. Sci. USA 87, 2896 (1990)). Total inositol phosphates were eluted with 1M ammonium formate/0.1M formic acid. Rmax indicates the percentage increase of total labeled inositol phosphates over basal levels following NE stimulation.

Assay [2] deals with T2, α1B ADR mutant (Mesocricetus auratus, UniProt P18841, A293L/K290H/R288K).
T2 construct: expressed in transfected cells; host or cells: RAT-1 fibroblasts (vector pZIP-NeoSV(X)1), focus-derived, G418-selected lines
T2 sequence (P18841 1-515 R288K/K290H/A293L): T1 sequence (P18841 1-515) with R288K, K290H, A293L
The assay can be described thus: Ligand binding on membranes of RAT-1 fibroblast cell lines expressing the α1B ADR mutant. On the set-up: species or system hamster. To be noted: two clones. Here is the method:
as §1

Assay [3] deals with α1B -ADR.
Method: To quantitate receptor-mediated effects on mitogenesis, basal and NE-stimulated growth rates were assessed on cell lines expressing the wild type or mutant α1B -ADRs.
Assay [4] has as its system RAT-1 fibroblast cell line derived from a single transformed focus expressing the α1B -ADR. Description: Morphology of focus-derived RAT-1 fibroblast cell line expressing the α1B-ADR. Type of assay: cell-based. The following applies: 10 μM NE and 1 μM prazosin, 36 hours.
The test system of assay [5] is RAT-1 fibroblasts transfected with α1B -ADR c-DNA. Description: Focus formation in RAT-1 fibroblasts transfected with α1B-ADR c-DNA. Type of assay: cell-based. To be noted: focus-derived RAT-1 cell lines; data not shown. Here is the method: Transfection was carried out as follows: RAT-1 fibroblasts were seeded at a density of 2×10^5 cells in Dulbecco's modified Eagle's medium (DMEM) (Gibco) containing 5% fetal bovine serum (FBS) in 100 mm dishes. […] After 16 hours, the DNA precipitate was removed, the cells washed and grown for 24 hours in complete medium. Cells were split 1:5, allowed to attach overnight and then cultured in DMEM with 5% FBS alone, supplemented with 10 μM norepinephrine (NE) or G418 (300 μg/ml). Dishes were supplemented with NE daily, and fed every 3 days with fresh medium.

The mark [6] stands for this setting: saturation binding 10 to 500 pM, nonspecific binding with 1 μM prazosin, read-out: [125I] HEAT Kd.
The mark [7] stands for this setting: serum free medium, data not shown.

Consider `O=C1c2ccccc2CCC1CNCCc1ccc(O)c([125I])c1` (stereo not shown) [[^125 I] HEAT, 2{b-(4-hydroxy-3-[^125 I]iodophenyl)ethylaminomethyl}-tetralone], for which the Kd – broadly, the constant that tells how readily two partners part at equilibrium – was 0.0441 nM and 0.0383 nM in assay [1] (setting [6]); 0.0379 nM and 0.0463 nM in assay [2] (setting [6]). The “[125I] HEAT Bmax” value in assay [1] (saturation binding) was 5.1 pmol/mg and 2.7 pmol/mg; in assay [2] (saturation binding) it was 2.2 pmol/mg and 2.6 pmol/mg.
As to `c1ccc2c(c1)OCC(C1=NCCN1)O2` (stereo not shown) [idazoxan], the “blockade of NE-induced increase in DNA synthetic activity” value (shortened to “blockade of NE-induced increase”) in assay [3] (setting [7]) is reported as “not”.
As for `COc1cc2nc(N3CCN(C(=O)c4ccco4)CC3)nc(N)c2cc1OC` [prazosin], the “effect of concurrent antagonist on agonist-induced transformation (morphology)” value in assay [4] is reported as “blocked agonist-induced transformation; also recorded: reverted the cells to the untransformed phenotype”. Further, the “inhibition of agonist-dependent focus formation by concurrent antagonist” value in assay [5] is given as “could be inhibited”. Also, the “blockade of NE-induced increase” value in assay [3] is listed as “could be blocked”.
As for `CC(C)NCC(O)COc1cccc2ccccc12` (stereo not shown) [propranolol], the “blockade of NE-induced increase” value in assay [3] (setting [7]) is listed as “not”.
Turning to `COC(=O)[C@@H]1[C@H]2C[C@H]3c4[nH]c5ccccc5c4CCN3C[C@@H]2CC[C@@H]1O` [yohimbine], the “blockade of NE-induced increase” value in assay [3] was “not”.
